# Legend:
# Assay type in all cases: cell-based
# [1] = system: ISG gene expression induced by MSA-2 in human THP1-Blue-ISG cells; assay: Inhibition of MSA-2-induced ISG gene expression in human THP1-Blue-ISG cells (Quanti-Blue, OD650); conditions: STING agonist MSA-2 10 µM, incubated for 24 hours
# Method: (§1) 10 µL of compound diluted with PBS/physiological saline was added to each well of a 96 well cell culture plate. The STING agonist was MSA-2, which was added to the counted cell suspension at a final concentration of 10 µM. For the control group without compounds, 10 µL of PBS/physiological saline containing 2% DMSO was added. 3 replicate wells were set in each group. THP1-Blue-ISG cells were counted and adjusted to a cell concentration of 4× 10^5/mL, and 190 µL of cells containing STING agonist were added to each well for incubation. Therefore, the final volume of each test well was 200 µL, the content of DMSO was 0.1%, and the final concentration of the compound tested was 10/3.3/1.1/0.4/0.13/0.04/0.013/0.004 µM, incubated for 24 hours. In addition, 190 µL of cells without STING agonist and 10 µL of physiological saline containing 2% DMSO were added to the blank group. 3 replicate wells were set in each group.
# After 24 hours, 20 µL of culture medium was taken from each well and transferred to a new 96 well plate. 180 µL of chromogenic solution Quanti-Blue was added. The plate was placed in a 37 °C incubator. After 2 hours, the OD650 values were measured.
# Result analysis: Inhibition rate (%) = (Con(OD650)−Treated(OD650))/Con(OD650) × 100% [formula]
# (§2) The IC50 calculation of inhibitors was implemented using the Graphpad Prism 8 software's calculation method log (inhibitor) vs. response - Variable slope (four parameters), with a constrain interval of 0-100.
# [2] = system: DMXAA induced ISG gene expression in mouse RAW-Lucia cells; assay: Inhibition of DMXAA-induced ISG gene expression in mouse RAW-Lucia cells (QUANTI-Luc); conditions: STING agonist DMXAA 50 µM, incubated for 24 hours
# Method: 10 µL of compound diluted with PBS/physiological saline was added to each well of a 96 well cell culture plate. The STING agonist was DMXAA, which was added to the counted cell suspension at a final concentration of 50 µM. For the control group without compounds, 10 µL of PBS/physiological saline containing 2% DMSO was added. 3 replicate wells were set in each group. RAW-Lucia cells were counted and adjusted to a cell concentration of 4×10^5/mL, and […] of cells were added to each well for incubation. Therefore, the final volume of each test well was 200 µL, the content of DMSO was 0.1%, and the final concentration of the compound tested was 10/3.3/1.1/0.4/0.13/0.04/0.013/0.004 µM. The final concentration of STING agonist DMXAA was 50 µM. The mixture was incubated for 24 hours. In addition, 200 µL of culture medium was added to the blank group. 3 replicate wells were set in each group.
# (§3) After 24 hours, 20 µL of culture medium was taken from each well and transferred to a new 96 well plate with photopermeable bottom. 50 µL of the luciferase detection reagent QUANTI-Luc™ was added, and the […] was immediately measured (avoid light).
# Result analysis: Inhibition rate (%) = (Con(Lum)−Treated(Lum))/Con(Lum) × 100% [formula]
# as §2
# [3] = system: ISG gene expression induced by MSA-2 in human THP1-Dual cells; assay: Inhibition of MSA-2-induced ISG gene expression in human THP1-Dual cells (QUANTI-Luc); conditions: STING agonist MSA-2 10 µM, incubated for 24 hours
# Method: as §1, with “THP1-Dual” for “THP1-Blue-ISG”, “4×10^5/mL,” for “4× 10^5/mL,”
# as §3, with “medium for THP1-Dual cells” for “medium”, “light). Result analysis:Inhibition rate (%) = (Con(Lum)−Treated(Lum))/Con(Lum) × 100% [formula]” for “light).”
# as §2
IC50 [1] [nM],IC50 [2] [nM],IC50 [3] [nM],Compound
2300,161,–,"O=C(Nc1ccc2c(c1)N(Cc1ccccc1)C(=O)CS2)Nc1c[nH]c2ccccc12 [A, reference compound]"
> 10000,> 1000,–,"CC1(C)C(=O)N(Cc2ccsc2)c2cc(NC(=O)c3c[nH]c4ccccc34)ccc21 [B, reference compound]"
1540,188,–,"CC1(C)C(=O)N(Cc2ccccc2)c2cc(NC(=O)c3c[nH]c4ccccc34)ccc21 [C, reference compound]"
392,33,–,"O=C(Nc1c[nH]c2ccccc12)c1cc2c(s1)SCC(=O)N2Cc1ccccc1 [Example I-6, 1-benzyl-N-(1H-indol-3-yl)-2-oxo-2,3-dihydro-1H-thieno[2,3-b][1,4]thiazin-6-carboxamide]"
390,–,–,"O=C(Nc1cc2c(s1)SCC(=O)N2Cc1ccccc1)Nc1c[nH]c2ccccc12 [Example I-7, 1-(1-benzyl-2-oxo-2,3-dihydro-1H-thieno[2,3-b][1,4]thiazin-6-yl)-3-(1H-indol-3-yl)urea]"
249,–,–,"O=C(Nc1c[nH]c2ccccc12)c1ccc2c(c1)N(CC1CN(c3cc(F)cc(C(F)(F)F)c3)C1)C(=O)CS2 [Example I-9, 4-((1-(3-fluoro-5-trifluoromethylphenyl)azetidin-3-yl)methyl)-N-(1H-indol-3-yl)-3-oxo-3,4-dihydro-2H-benzo[b][1,4]thiazin-6-carboxamide]"
375,–,–,"CC1(C)C(=O)N(CC2CN(c3ccccc3)C2)c2cc(NC(=O)Nc3c[nH]c4ccccc34)ccc21 [Example I-12, 1-(3,3-dimethyl-2-oxo-1-((1-phenylazetidin-3-yl)methyl)indolin-6-yl)-3-(1H-indol-3-yl)urea]"
391,–,–,"O=C(Nc1ccc2c(c1)N(CC1CN(c3ccc4c(c3)OCO4)C1)C(=O)CS2)Nc1c[nH]c2ccccc12 [Example I-13, 1-(4-((1-(benzo[d][1,3]dioxolan-5-yl)azetidin-3-yl)methyl)-3-oxo-3,4-dihydro-2H-benzo[b][1,4]thiazin-6-yl)-3-(1H-indol-3-yl)urea]"
25,–,–,"O=C(Nc1c[nH]c2ccccc12)c1ccc2c(c1)N(Cc1cccs1)C(=O)CS2 [Example I-59, N-(1H-indol-3-yl)-3-oxo-4-(thien-2-ylmethyl)-3,4-dihydro-2H-benzo[b][1,4]thiazin-6-carboxamide]"
42,–,–,"O=C(Nc1c[nH]c2ccccc12)c1ccc2c(c1)N(Cc1ccco1)C(=O)CS2 [Example I-60, 4-(furan-2-ylmethyl)-N-(1H-indol-3-yl)-3-oxo-3,4-dihydro-2H-benzo[b][1,4]thiazin-6-carboxamide]"
139,–,–,"O=C(Nc1c[nH]c2ccccc12)c1ccc2c(c1)SCC(=O)N2Cc1ccoc1 [Example I-64, 4-(furan-3-ylmethyl)-N-(1H-indol-3-yl)-3-oxo-3,4-dihydro-2H-benzo[b][1,4]thiazin-7-carboxamide]"
57,–,–,"O=C(Nc1c[nH]c2ccccc12)c1ccc2c(c1)SCC(=O)N2Cc1ccc2occc2c1 [Example I-65, 4-(benzofuran-5-ylmethyl)-N-(1H-indol-3-yl)-3-oxo-3,4-dihydro-2H-benzo[b][1,4]thiazin-7-carboxamide]"
73,–,–,"O=C(Nc1c[nH]c2ccccc12)c1ccc2c(c1)SCC(=O)N2Cc1ccc2c(c1)OCO2 [Example I-66, 4-(benzo[d][1,3]dioxolan-5-ylmethyl)-N-(1H-indol-3-yl)-3-oxo-3,4-dihydro-2H-benzo[b][1,4]thiazin-7-carboxamide]"
–,7.51,12.2,"O=C(Nc1c[nH]c2ccccc12)c1cc2c(s1)SCC(=O)N2Cc1cc(F)cc(C(F)(F)F)c1 [Example I-115, 1-(3-fluoro-5-(trifluoromethyl)benzyl)-N-(1H-indol-3-yl)-2-oxo-2,3-dihydro-1H-thieno[2,3-b][1,4]thiazin-6-carboxamide]"
–,76.7,85,"O=C(Nc1c[nH]c2ccccc12)c1cc2c(s1)SCC(=O)N2Cc1ccoc1 [Example I-117, 1-(furan-3-ylmethyl)-N-(1H-indol-3-yl)-2-oxo-2,3-dihydro-1H-thieno[2,3-b][1,4]thiazin-6-carboxamide]"
–,45.2,232,"O=C(Nc1c[nH]c2ccccc12)c1cc2c(s1)SCC(=O)N2Cc1ccco1 [Example I-118, 1-(furan-2-ylmethyl)-N-(1H-indol-3-yl)-2-oxo-2,3-dihydro-1H-thieno[2,3-b] [1,4]thiazin-6-carboxamide]"
–,8.7,96.5,"O=C(Nc1c[nH]c2ccccc12)c1cc2c(s1)SCC(=O)N2Cc1cccc2ccoc12 [Example I-120, 1-(benzofuran-7-ylmethyl)-N-(1H-indol-3-yl)-2-oxo-2,3-dihydro-1H-thieno[2,3-b][1,4]thiazin-6-carboxamide]"
–,31.7,268,"O=C(Nc1c[nH]c2ccc(F)cc12)c1cc2c(s1)SCC(=O)N2Cc1ccco1 [Example I-121, N-(5-fluoro-1H-indol-3-yl)-1-(furan-2-ylmethyl)-2-oxo-2,3-dihydro-1H-thieno[2,3-b][1,4]thiazin-6-carboxamide]"
–,15.9,272,"O=C(Nc1c[nH]c2ccc(F)cc12)c1cc2c(s1)SCC(=O)N2Cc1ccoc1 [Example I-122, N-(5-fluoro-1H-indol-3-yl)-1-(furan-3-ylmethyl)-2-oxo-2,3-dihydro-1H-thieno[2,3-b][1,4]thiazin-6-carboxamide]"
–,5.71,69,"O=C(Nc1c[nH]c2ccc(Cl)cc12)c1cc2c(s1)SCC(=O)N2Cc1cc(F)cc(C(F)(F)F)c1 [Example I-123, N-(5-chloro-1H-indol-3-yl)-1-(3-fluoro-5-(trifluoromethyl)benzyl)-2-oxo-2,3-dihydro-1H-thieno[2,3-b][1,4]thiazin-6-carboxamide]"
–,< 3,48,"O=C(Nc1c[nH]c2ccc(F)cc12)c1cc2c(s1)SCC(=O)N2Cc1cc(F)cc(C(F)(F)F)c1 [Example I-124, N-(5-fluoro-1H-indol-3-yl)-1-(3-fluoro-5-(trifluoromethyl)benzyl)-2-oxo-2,3-dihydro-1H-thieno[2,3-b][1,4]thiazin-6-carboxamide]"
–,5.26,76.6,"O=C(Nc1c[nH]c2cc(F)c(F)cc12)c1cc2c(s1)SCC(=O)N2Cc1cc(F)cc(C(F)(F)F)c1 [Example I-125, N-(5,6-difluoro-1H-indol-3-yl)-1-(3-fluoro-5-(trifluoromethyl)benzyl)-2-oxo-2,3-dihydro-1H-thieno[2,3-b][1,4]thiazin-6-carboxamide]"
–,58.5,58.5,"CC1(C)C(=O)N(Cc2cccc3ccoc23)c2cc(C(=O)Nc3c[nH]c4ccc(F)cc34)ccc21 [Example I-126, 1-(benzofuran-7-ylmethyl)-N-(5-fluoro-1H-indol-3-yl)-3,3-dimethyl-2-oxoindolin-6-carboxamide]"
–,39.4,39.4,"CC1(C)C(=O)N(Cc2cccc3ccoc23)c2cc(C(=O)Nc3c[nH]c4ccc(Cl)cc34)ccc21 [Example I-128, 1-(benzofuran-7-ylmethyl)-N-(5-chloro-1H-indol-3-yl)-3,3-dimethyl-2-oxoindolin-6-carboxamide]"

# Reference: patent EP4748844A1, “AZETIDINE COMPOUND AND MEDICAL USE THEREOF” (SHANGHAI INSTITUTE OF MATERIA MEDICA, CHINESE ACADEMY OF …, priority 2023, dated 2025)
